This is an account of results in patent US20150110716A1, “METHODS OF USING SPECT/CT ANALYSIS FOR STAGING CANCER” (Molecular Insight Pharmaceuticals, Inc., priority 2013, published 2015).

This test has as its system metastatic prostate cancer in pelvic lymph nodes. Put plainly: Phase 2 study: SPECT/CT detection of pelvic lymph node involvement vs histopathology. It counts as in vivo, human. How it is done: A phase-2 study to image men with high-risk prostate cancer scheduled for radical prostatectomy (RP) and Extended Pelvic Lymph Node Dissection (EPLND) was performed using a compound according to Formula (1), as an illustrative radioimaging agent. The primary objective of the study was to assess the safety and the ability of the Formula (1) compound to detect prostate cancer within the prostate gland. Secondary objectives include (i) assess the ability of the Formula (1) compound to detect the extent and location of prostate cancer within the prostate gland, (2) assess the ability of the Formula (1) compound to detect metastatic PCa within pelvic lymph nodes and to further detect the specific location of metastatic PCa within anatomic pelvic lymph node regions, (3) compare the performance of the Formula (1) compound as a prostate cancer imaging agent to MRI and compare the ability of the Formula (1) compound to detect the specific location of metastatic PCa within pelvic lymph nodes to the ability of MRI for detecting the specific location of metastatic PCa within pelvic lymph nodes.
A Phase-2 multi-center, multi-reader, open-label trial, to assess the performance characteristics of the Formula (1) compound as an imaging agent was measured by true-positive fraction (TPF equivalent to sensitivity) and false-positive fraction (FPF, equivalent to 1-specificity). The “truth standard” for determining true-positive cases and false-positive cases were histopathology results obtained subsequent to RP and EPLND. […]
Newly-diagnosed prostate cancer patients at high-risk for metastatic disease who were scheduled for RP with EPLND were enrolled in the study. […] Images of the patients were evaluated for visible uptake of the Formula (1) compound within the prostate gland and by regional assessment of nodal disease. […]
Patients (pts) with biopsy confirmed adenocarcinoma of the prostate scheduled for RP with extended pelvic lymph node dissection (EPLND) at high risk for disease outside of the prostate gland were eligible. […] SPECT/CT images were evaluated centrally by 3 readers blinded to clinical information and compared to on-site pathology assessments using a common scoring template, for instance, a Lesion Visualization Grading Score. […]
Three nuclear medicine experts and an MRI expert, blinded to clinical information, assessed ^99mTc-trofolastat uptake and morphologic features respectively in the prostate gland and lymph nodes. The findings were recorded using common anatomic template consisting of six prostate segments and pelvic lymph node regions. […]

“(OC-6-33)-tricarbonyl[N^2-{[(1S)-1,3-dicarboxypropyl]amino]carbamoyl}-L-γ-glutamyl-N^6,N^6-bis[(1-{2-[bis(carboxymethyl)amino]-2-oxoethyl]-1H-imidazol-2-yl-κN^3]methyl]-L-lysine-κN^6](^99mTc)(+)chloride [Formula (1)]”: under “8/16”, the “scan-detected lymph node involvement confirmed by histopathology” value is 50%. Also, the “patients with lymph node involvement detected by scan” value (16/53 patients) was found to be 30%. The “patients in whom lymph node involvement was accurately characterized” value (41/53 patients) is on record as 77%. Moreover, the “size of positive lymph nodes detected” value (patients positive by scan with matching positive histopathology) is on record as 2 mm.
